# According to patent publication US20240317709A1, “Lysophosphatidic Acid Receptor Antagonists for Breast Cancer Treatment” (Lakehead University, priority 2023, published 2024):
# pIC50: −log10 of the molar value. Read-outs that look alike come from different tables or passages of the source.
# What was measured:
# [1] = test system: MDA-MB-231 cells; assay: transwell cell migration assay; assay type: cell-based; conditions: LPA with 1f 0, 0.5, 1.0 or 1.5 mM, 48 h, FIG. 3B
# Procedure: (§1) In addition, transwell migration/invasion assays were performed to further confirm the effect of LPA and 1f on cell migration and invasion. Transwell assay is based on a chamber of two media-filled partitions separated by a microporous membrane. Cells were plated in the upper chamber and are allowed to migrate to the lower chamber through the membrane pores with the stimulation of LPA and 1f. For the invasion assay, a layer of basement membrane extract was precoated on the chamber to block the pores of the membrane and prevent non-invasive cells from migrating through the membranes. Invasive cells are able to secret proteases which degrade the membrane extract in order to invade through the membrane.
# (§2) Transwell assays were conducted in 24-well transwell plates (pore size: 8 μm) to assess the migratory and invasive capacities of MDA-MB-231 cells. For migration assays, 2×10^4 cells were placed in 200 μl of serum-free DMEM in the upper chamber and then 500 μl of DMEM containing 10% FBS was added to the lower chamber. For the invasion assays, the chamber inserts were precoated with 50 μl of 1:9 mixture of basement membrane extract (R&D Systems) and DMEM overnight in a 37° C. incubator, then 6×10^4 cells were seeded in the upper chamber. 500 μl of DMEM containing 10% FBS was added to the lower chamber. Cells were treated with LPA or LPA with 1f (0, 0.5, 1.0 or 1.5 mM) for 48 h. […]
# [2] = test system: MDA-MB-231 cells; assay: wound healing assay; assay type: cell-based; conditions: LPA with 1f 0, 0.5, 1.0 or 1.5 mM, 48 h, FIG. 3A
# Procedure: Wound healing assay is a well-established method to determine cell migration in vitro. Firstly, a scratch was created in the cell monolayer, and then cells migrate to close the scratch. Cell migration rate can be measured using this method.
# Cells were seeded in a six-well plate at a density of 3×10^5 cells/well. When the cells formed a tight cell monolayer, a 200-μl plastic pipette tip was used to make a scratch. Cells were washed with PBS to remove cell debris, cultured in serum-free DMEM medium and exposed to LPA or LPA with 1f (0, 0.5, 1.0 or 1.5 mM) for 48 h.
# Wound photographs were recorded at the indicated times and analyzed by ImageJ software. All assays were conducted three times in our study.
# [3] = test system: MDA-MB-231 cells; assay: colony formation assay; assay type: cell-based; conditions: LPA with 1f 0, 0.5, 1.0 or 1.5 mM, FIG. 2
# Procedure: In order to study the effect of LPA and the compound 1f on the proliferation, migration, and invasion of MDA-MB-231, several in vitro assays were performed. Colony formation assay is a cell survival assay based on the ability of a single cell to grow into a colony and was performed to evaluate cell proliferation (17).
# MDA-MB-231 cells were trypsinized and plated in 6-well plate at a density of 1,000 cells/well and then cultured in 10% FBS DMEM. Cells were allowed to attach overnight and then exposed to LPA or LPA with 1f (0, 0.5, 1.0 or 1.5 mM). Forty-eight hours after chemical treatment, the media was replaced with fresh media, and the plates were incubated at 37° C. Ten days later, the cells were fixed and stained with 4% paraformaldehyde in 0.1% crystal violet. The number of colonies, defined as >50 cells/colony were counted, and the number of colonies were calculated using ImageJ.
# [4] = molecular target: T1, LPA1 (Homo sapiens, UniProt Q92633); assay: in vitro cAMP assay using a CHO cell line overexpressing LPA1 receptor; assay type: cell-based; set-up: GFP; host or cells: CHO-K1, transiently transfected; conditions: for % inhibition: cAMP assay, 1 μM LPA, 100 nM forskolin, test concentration not given
# Target sequence in this assay (Q92633 whole entry): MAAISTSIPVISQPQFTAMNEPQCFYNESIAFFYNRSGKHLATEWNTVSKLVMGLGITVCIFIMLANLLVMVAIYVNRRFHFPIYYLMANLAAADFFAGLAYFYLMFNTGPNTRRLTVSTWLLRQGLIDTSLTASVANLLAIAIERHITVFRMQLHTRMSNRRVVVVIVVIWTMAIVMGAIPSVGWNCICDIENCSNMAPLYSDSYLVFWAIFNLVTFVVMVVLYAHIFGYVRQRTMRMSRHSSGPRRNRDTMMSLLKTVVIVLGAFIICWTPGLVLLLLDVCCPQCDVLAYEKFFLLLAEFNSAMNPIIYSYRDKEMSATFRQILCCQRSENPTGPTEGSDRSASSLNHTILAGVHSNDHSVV
# [5] = test system: MDA-MB-231 cells; assay: transwell cell invasion assay; assay type: cell-based; conditions: basement membrane extract coated, LPA with 1f 0, 0.5, 1.0 or 1.5 mM, 48 h, FIG. 3B
# Procedure: as §1, §2
# [6] = test system: histamine release induced by LPA; conditions: in vivo; literature (ref 15); cited from earlier work
# [7] = molecular target: T1, LPA1; conditions: literature value (ref 15); read-out: IC50 in calcium release assay (LPA1); cited from earlier work
# Target sequence in this assay (Q92633 whole entry, species assumed): as the sequence (Q92633 whole entry) above
# [8] = test system: lung fibroblast; conditions: in vitro; literature (ref 15); cited from earlier work
# [9] = molecular target: T2, LPAs (Homo sapiens, UniProt Q9UBY5); conditions: literature value (ref 15); read-out: LPAs IC50 in calcium release assay; cited from earlier work
# T2 sequence (Q9UBY5 1-353): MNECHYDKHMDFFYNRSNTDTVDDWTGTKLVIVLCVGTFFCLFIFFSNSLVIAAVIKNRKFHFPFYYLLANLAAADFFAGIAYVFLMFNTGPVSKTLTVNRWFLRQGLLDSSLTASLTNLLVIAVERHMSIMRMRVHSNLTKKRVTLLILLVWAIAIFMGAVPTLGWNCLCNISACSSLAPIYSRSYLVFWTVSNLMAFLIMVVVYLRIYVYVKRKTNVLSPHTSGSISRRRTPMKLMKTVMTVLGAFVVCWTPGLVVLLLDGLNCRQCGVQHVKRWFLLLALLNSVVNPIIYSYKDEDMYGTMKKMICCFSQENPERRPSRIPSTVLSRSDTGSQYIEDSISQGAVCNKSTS
# [10] = concentration to reverse 50% of the inhibitory effect of 1 μM 18:1 LPA on forskolin-mediated cAMP production, CHO-K1 overexpressing LPA1
Structure (SMILES),% inhibition [4],"pIC50 [4, 10]",also measured
"Cc1nnn(-c2ccc(-c3ccc(C4(C(=O)O)CC4)cc3)cc2)c1NC(=O)OC(C)c1cccc(F)c1 (centres unmarked) [Compound 1f, 1-(4′-(5-(((1-(3-fluorophenyl)ethoxy)carbonyl)amino)-4-methyl-1H-1,2,3-triazol-1-yl)-[1,1′-biphenyl]-4-yl)cyclopropane-1-carboxylic acid]",109.8%,7.80,"inhibition of LPA-induced cell migration (transwell) [1]: hindered by 1f dose-dependently; inhibition of LPA-induced cell migration (wound healing) [2]: impeded cell migration dose-dependently; inhibition of LPA-induced cell proliferation (colony formation) [3]: inhibited LPA-induced MDA-MB-231 cell proliferation in a dose-dependent manner; IC50 (nM) [4, 10]: lower than the control compound; inhibition of LPA-induced cell invasion (transwell) [5]: hindered by 1f dose-dependently"
"Cc1nnn(-c2ccc(-c3ccc(C4(C(=O)O)CC4)cc3)cc2)c1NC(=O)N[C@H](C)c1ccccc1 [Compound 2f, (R)-1-(4′-(4-methyl-5-(3-(1-phenylethyl)ureido)-1H-1,2,3-triazol-1-yl)-[1,1′-biphenyl]-4-yl)cyclopropane-1-carboxylic acid]",108.1%,6.62,–
"Cc1nnn(-c2ccc(-c3ccc(C4(C(=O)O)CC4)cc3)cc2)c1NC(=O)N[C@@H](C)c1ccccc1 [Compound 2g, (S)-1-(4′-(4-methyl-5-(3-(1-phenylethyl)ureido)-1H-1,2,3-triazol-1-yl)-[1,1′-biphenyl]-4-yl)cyclopropane-1-carboxylic acid]",92.7%,6.52,–
"Cc1nnn(-c2ccc(-c3ccc(C4(C(=O)O)CC4)cc3)cc2)c1NC(=O)NC(C)c1ccccc1 (centres unmarked) [Compound 2h, 1-(4′-(4-methyl-5-(3-(1-phenylethyl)ureido)-1H-1,2,3-triazol-1-yl)-[1,1′-biphenyl]-4-yl)cyclopropane-1-carboxylic acid]",83.8%,6.62,–
Cc1nnn(-c2ccc(-c3ccc(C4(C(=O)O)CC4)cc3)cc2)c1NC(=O)O[C@H](C)c1ccccc1 [RO-2],111.6%,7.74,histamine release induced by LPA [6]: ameliorated histamine release induced by LPA in vivo; pIC50 [7]: 7.60; inhibition of lung fibroblast contraction induced by LPA [8]: inhibited lung fibroblast proliferation and contraction induced by LPA in vitro; inhibition of lung fibroblast proliferation induced by LPA [8]: inhibited lung fibroblast proliferation and contraction induced by LPA in vitro; pIC50 [9]: < 4.52
